{
  "source": "patent US12319752B2",
  "about": "“Heparin-binding cationic peptide self-assembling peptide amphiphiles useful against drug-resistant bacteria” (priority 2016, dated 2025)",
  "key": {"S. aureus": {"tested_on": "S. aureus", "assay": "Bacterial growth inhibition (growth curves, OD562, 20 h)", "type": "cell-based, Staphylococcus aureus (ATCC #25923)", "experimental": "Gram-positive (S. aureus and MRSA) and Gram-negative (E. coli and MDR E. coli) bacteria were incubated with peptide concentrations ranging from 20 to 100 μM, and time-lapsed bacterial growth was monitored for 20 hours by determining the optical density at 562 nm (O.D. 562 nm). […] At the highest concentration tested (100 μM), the time to exponential growth phase of S. aurues was delayed by about 18 h (FIG. 5B), and was prolonged by almost 13 h for MRSA (FIG. 5A), while bacteria incubated without ACA-PA entered the exponential growth phase within 4 h. Gram-positive bacteria were also susceptible to the ACA-PA even below their CMC.\nThis assay was performed to investigate the inhibitory effects of each peptide against Gram-positive Staphylococcus aureus (S. aureus, ATCC #25923) and methicillin-resistant S. aureus (MRSA, ATCC #43300), as well as Gram-negative Escherichia coli (E. coli, ATCC #25922), and multidrug-resistant E. coli (MDR E. coli, ATCC #BAA-2471). In all experiments, solutions of each peptide at the concentrations from 20 μM to 100 μM in 3% Tryptic Soy Broth (TSB) media were freshly prepared. A single colony of bacteria was isolated from a stock agar plate and cultured overnight in 4 mL of 3% TSB on a shaking incubator set at 200 rpm and 37° C. The bacteria culture was adjusted to an optical density at 562 nm (OD562) to about 0.52 (10^9 cells/mL), and the resulting bacteria suspension was subsequently diluted to about 10^6 colony forming units (CFU) per mL in each sample. The control samples were bacteria incubated in TSB media without peptides. The bacteria were incubated inside a spectrophotometer (Spectra-Max Paradigm, Molecular Devices, Sunnyvale, CA) at 37° C. under static conditions for 20 h, and the bacterial growth curves were measured in terms of turbidity at OD562 every 2 minutes. The normalized OD562 values of samples were calculated by subtracting the […]."}, "MRSA": {"tested_on": "MRSA", "assay": "Viable colony count assay (bactericidal effect, 4 h)", "type": "cell-based, methicillin-resistant S. aureus (MRSA, ATCC #43300)", "experimental": "The bactericidal effects of the peptides were examined using a viable colony count assay as well as the live/dead staining assay. For the viable colony count assay, bacteria were treated with peptides for 4 h and the resulting viable bacterial density of each sample was expressed by log10[CFU/mL]. For the Gram-positive bacteria tested, the decrease in bacterial density was dependent on the concentration of the ACA-PA (FIG. 8A). […] As for Gram-negative E. coli and MDR E. coli bacteria (FIG. 8B), the ACA nanorods, wherein the PA were added at a concentration above their CMC, had potent bactericidal effects. For example, the ACA nanorods at concentrations over 60 μM reduced the colony forming units of Gram-negative bacteria by about a five log unit reduction after 4 h compared with the untreated negative control sample.\nIn addition, ACA-PA were mixed with heparin at various weight ratios (1:1, 1:2, and 1:3 ACA-PA to heparin ratios) to block the Cardin motif groups on the PA. The ACA-PA concentration used to treat bacteria (MRSA and MDR E. coli) was a constant 80 μM and only varied in the concentration of heparin.\nThe viable count assay was performed to quantify the bactericidal activity of each peptide. Stock solutions of peptides were diluted in 3% TSB media to concentrations ranging from 20 μM to 100 μM immediately before experiments. Heparin-ACA-PA were also prepared by mixing the ACA-PA stock solution with heparin (sodium salt from porcine intestinal mucosa, Sigma, St. Louis, MO) to 1:1, 1:2 and 1:3 weight ratios in water, and a final concentration of ACA-PA in the heparin-ACA-PA at each heparin weight ratio was adjusted to 80 μM for each experiment. The bacteria (10^6 CFU/mL) were incubated with peptides at 37° C. for 4 h. After incubation, serial dilutions of samples were plated on TSB agar and then incubated at 37° C. overnight. The colonies from each spot were manually counted, and the CFU number for each sample was determined. Experiments were conducted in triplicate and results were expressed as the log 10 values of the CFU number in each sample. Data were expressed by stand error of the mean (±S.E.M.) and N=3, *p<0.05 compared with control samples and #p<0.05 compared with bacteria treated with 40 μM of ACA-PA."}, "[1]": {"tested_on": "human dermal fibroblasts (HDF)", "assay": "Cytotoxicity, MTS cell viability assay", "type": "cell-based", "experimental": "To evaluate the cytotoxicity of the peptides, human dermal fibroblasts (HDF) were treated for 24 h, and cell viability was determined via MTS assays (FIG. 13).\nHuman dermal fibroblast cells (HDF, Detroit 551, ATCC #CCL-110) were cultured in Dulbecco's modified Eagle medium (DMEM; Fisher, Pittsburgh, PA) supplemented with 10% fetal bovine serum (FBS) and 1% penicillin/streptomycin for 24 h. All cells were cultured to 90% confluence in a 37° C., humidified, 5% CO2/95% air environment. Cells at passage numbers of 4-7 were used in these experiments.\nThe MTS cell viability assay kit (Promega, Madison, WI, USA) was used to determine cytotoxicity of the peptides. First, HDF cells were seeded on a 96-well plate at a cell density of 5,000 cells/well (equal to 15,385 cells/cm^2), and were incubated overnight for cell adhesion. After overnight incubation, the cell medium in each well was replaced by 100 μL of cell culture medium containing various concentrations of peptides (20 μM to 100 μM). The control samples were cells incubated in cell culture medium only. After 24 h, the treatment medium in each well was removed. The cells were washed with phosphate buffered saline (PBS, pH=7.4, Fisher, PA, USA) and 100 μL of fresh cell culture medium was added to each well, followed by the addition of 20 μL of the MTS reagent. After the cells were incubated for 2.5 h, the absorbance was measured at a wavelength of 490 nm by a spectrophotometer (SpectraMax M3, Molecular Devices, Molecular Devices, Sunnyvale, CA, USA). To estimate the cell numbers in each well, a standard curve expressing the linear correlation between different cell densities and optical densities (R^2>0.95) was plotted, and the cell numbers were determined with this standard curve from the OD490 value recorded in each sample. The cell viability of each sample was calculated by: Cell viability=[(cell density per mL of treated sample)/(cell density per mL of control sample)]×100%. Data were expressed by standard error of the mean (±S.E.M.) and N=3, *p<0.05 compared with control samples."}},
  "note": "Residues, ends and D or L forms follow the SMILES beside them. *: point of attachment. Palmitoyl = CCCCCCCCCCCCCCCC(=O)*",
  "data": [
    {"smiles": "CCCCCCCCCCCCCCCC(=O)N[C@H](C(=O)N[C@H](C(=O)N[C@H](C(=O)N[C@H](C(=O)N[C@@H](CCCCN)C(=O)N[C@@H](CCCCN)C(=O)N[C@@H](CCCCN)C(=O)N[C@@H](CCCCN)C(=O)NCC(=O)N[C@@H](C)C(=O)N[C@@H](CCCCN)C(=O)N[C@@H](CCCCN)C(=O)N[C@@H](C)C(=O)N[C@@H](CCCNC(=N)N)C(=O)N[C@@H](C)C(=O)N[C@@H](C)C(=O)N[C@@H](CCCCN)C(=O)N[C@@H](CCCCN)C(=O)N[C@@H](C)C(=O)N[C@@H](CCCNC(=N)N)C(=O)N[C@@H](C)C(=O)O)C(C)C)C(C)C)C(C)C)C(C)C", "note": "[ACA-PA, C16-V4K4G(AKKARA)2 (SEQ ID NO: 7)] (Palmitoyl-VVVVKKKKGAKKARAAKKARA-OH; N-terminus and C-terminus assumed)", "values": [
      {"measurement": "delay of time to exponential growth phase", "setting": "S. aureus; 100 μM", "result": "about 18 h"},
      {"measurement": "bacterial growth inhibition", "setting": "S. aureus; 20 to 100 μM, 20 h", "result": "remarkably inhibited the proliferation"},
      {"measurement": "susceptibility of bacterial growth", "setting": "S. aureus; below the CMC", "result": "susceptible"},
      {"measurement": "decrease in bacteria density", "setting": "MRSA; MRSA (Gram-positive), 60 to 100 μM", "result": "~100", "unit": "fold"},
      {"measurement": "number of viable bacteria colonies after mixing with heparin", "setting": "MRSA; MRSA, 80 μM ACA-PA, 1:1, 1:2, 1:3 ACA-PA to heparin weight ratios", "result": "positively proportional to the amount of heparin added"},
      {"measurement": "toxicity towards bacteria after mixing with heparin", "setting": "MRSA; MRSA, 80 μM ACA-PA, 1:3 ACA-PA to heparin weight ratio, 4 h", "result": "no toxicity towards bacteria"},
      {"measurement": "decline in bacteria density", "setting": "MRSA; MRSA, over 80 μM, 4 h", "result": 100, "unit": "fold"},
      {"measurement": "decrease of colony forming units", "setting": "MRSA; MRSA, over 80 μM, 4 h", "result": "two"},
      {"measurement": "cytotoxicity", "setting": "[1]", "result": "moderate cytotoxicity"}
    ]}
  ]
}
